Results on eleven molecules are retold here after PMC3867503 (PLoS ONE, 2013).

By IC50 is commonly meant the point on the concentration scale where inhibition reaches its midpoint. What is called half-life is how long it takes for the measured level to halve.

“And” between values parts separate entries of the source, which are not always exact repeats. Equal values may be shown once. “Also recorded” adds a separate entry of the source. Read-outs that look alike come from different tables or passages of the source.

The target in series [1] is T1, recombinant human EYA3 (Homo sapiens, UniProt Q99504).
T1 construct: a splice variant of Q99504 corresponding to isoform 2 and missing residues 1 - 126; made in house
T1 sequence (Q99504 1-447 isoform Q99504-2): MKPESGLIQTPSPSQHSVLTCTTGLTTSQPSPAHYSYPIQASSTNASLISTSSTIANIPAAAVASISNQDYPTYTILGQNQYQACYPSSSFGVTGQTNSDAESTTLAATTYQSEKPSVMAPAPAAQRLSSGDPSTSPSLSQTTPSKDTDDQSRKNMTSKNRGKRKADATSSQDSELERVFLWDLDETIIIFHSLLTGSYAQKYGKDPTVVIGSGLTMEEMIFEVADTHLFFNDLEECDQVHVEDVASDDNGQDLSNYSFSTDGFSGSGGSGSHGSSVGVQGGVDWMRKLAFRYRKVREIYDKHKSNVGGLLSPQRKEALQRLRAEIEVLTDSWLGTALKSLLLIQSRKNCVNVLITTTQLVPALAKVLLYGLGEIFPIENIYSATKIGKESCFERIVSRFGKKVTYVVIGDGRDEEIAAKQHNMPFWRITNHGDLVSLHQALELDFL
Description: pNPP hydrolysis by EYA3 (tyrosine phosphatase enzyme assay). The class given is biochemical. Particulars: for IC50: recombinant human EYA3, substrate pNPP, read-out: IC50 (95% confidence intervals), pNPP hydrolysis by EYA3. As to the method:
Purification of recombinant EYA3 has been reported previously. Assays using the colorimetric substrate p-nitrophenylphosphate were conducted as previously reported.
Enzymatic assays were conducted using recombinant human EYA3 (a splice variant of Q99504 corresponding to isoform 2 and missing residues 1 - 126) purified as described. The chromogenic substrate para-nitrophenylphosphate (pNPP) was used to measure catalytic activity of EYA3. […] To assay potential EYA inhibitors, the compounds were pre-incubated with EYA3, pNPP added, and the formation of the p-nitrophenolate product measured. […] In addition, an ex vivo examination of sprouting angiogenesis was conducted using the aortic ring assay.

Series [2] relates to HUVECs. Description: HUVEC proliferation / cell viability assay (WST-8). In kind it is cell-based, human. Conditions: for effect on cell viability / proliferation: 72 hours. Here is the method: 75% confluent HUVECs (<passage 8) were washed with PBS and trypsinized, deactivated with 10% FBS, spun down and counted. 1000 cells/well were seeded in triplicate in 100 μl EGM-2 complete medium either with inhibitors (in 0.2% DMSO) or vehicle alone (0.2% DMSO). After 0 hrs, 24 hrs, 48 hrs, 72 hrs of incubation at 37°C in […] 10 μl WST-8 was added to each well and incubated for 2 hours in the dark, at 37°C, […]. Absorption was read at 450 nm. Fold change was calculated as the ratio of the OD450 at the experimental time point and at the start of the experiment (0 hours).
A cell viability assay was conducted over 3 days of exposure to the test compounds in order to assess both the possibility of immediate cellular toxicity as well as any effect on cell proliferation. HUVECs were seeded and equilibrated for 24 hours before addition of the test compounds. Cellular metabolic activity was measured at defined time-points using the tetrazolium dye WST-8 to quantify NAD(P)H-dependent cellular oxidoreductase enzyme activity.
Figure 2 Proliferation of HUVECs in the presence of 7.5 μM test compounds. Cell viability was measured at 72 hours post-seeding. Asterisk represents significant differences between groups (*** P<0.001, * P<0.05).
For orientation: Tetrazolium assays rely on reduction of a dye to a coloured formazan, in cell work by metabolically active cells.

For series [3] the following is noted: cited from earlier work; for half-life: as previously reported; for maximal plasma concentration: single oral dose of 100 mg.
In series [4] the test system is HUVECs. Conditions: cited from earlier work.
For series [5], the target named is T1, recombinant human EYA3. Conditions: recombinant EYA3, substrate pNPP; reported previously; read-out: IC50 (95% confidence intervals), pNPP hydrolysis by EYA3; cited from earlier work.
In series [6] the test system is aortic ring explants from C57BL/6 mice. The series is described as follows: Aortic ring sprouting assay (ex vivo). Conditions: mouse aortic rings in collagen, initially 7.5 μM, 10-day treatment. As to the method:
The preparation of rat collagen and the aortic ring assay were carried out as previously described. Briefly, aortic ring explants were obtained from C57BL/6 mice aged 4 to 6 weeks and cultured at 37°C in a humidified incubator under a 5% CO2 atmosphere in serum-free EBM. Within 30 minutes of dissection the rings were placed in a 3D collagen matrix supported by a UV-sterilized nylon mesh ring with inner and outer diameters of 3 mm and 5.6 mm, respectively. The matrix was prepared by mixing 8 parts of collagen solution, 1 part of 10x M199 and 1 part of 23.4mg/ml NaHCO3. After another 30 min incubation at 37°C, the assembly was transferred into a well of 96-well plate filled with 150 μl of culture medium; either control medium consisting of 0.1% DMSO in EBM, 2.5% FBS, penicillin/streptomycin and 20ng/ml VEGF165 or the test inhibitor dissolved in the control medium. Each compound was applied over a 10-day period with medium changes every two days. […]
This assay allows for analysis of cell proliferation, migration, tube formation, micro-vessel branching, and perivascular recruitment. […] All the test compounds were initially assayed at 7.5 μM and the number of branch-points counted. […]
Figure 6 Effect of test compounds on aortic ring sprouting. […] (B) Quantitation of the number of sprouts per ring with each bar representing at least 4 rings. *** P<0.001, ** P<0.01, * P<0.05, ns not significant).

The test system of series [7] is HUVECs. Description: Scratch wound healing (cell migration) assay. The class given is cell-based, human. Here is the method: 10^5 HUVECs/well were seeded on 24-well plates and cultured until they reached confluency in EGM-2. The monolayers were then scratch-wounded using a 200 μl pipette tip, washed with PBS, and incubated with EGM-2 complete medium and either EYA Inhibitors or vehicle control (0.2% DMSO). Wounds were photographed immediately upon insult, and at various time-points following wounding using a phase-contrast microscope. The number of cells that migrated into the cleared area was counted using the Cell Counter function of ImageJ [20].
The effect of the test compounds on cell migration was assessed using a scratch wound healing assay and HUVEC cells. Cells were plated and grown to confluency. Scratch wounds were made using a sterile pipette tip, the medium changed to remove any cellular debris, and fresh medium with either vehicle or test compound was introduced. The number of cells that migrated into the cleared space was counted 22 hours later. […] Previous experiments had shown a role for EYA3 in trans-well migration of HUVECs. […] Lentiviral shRNA targeting EYA3 in HUVECs led to greater than 80% reduction in EYA3 protein levels (Figure 4A).
Figure 3 Lateral migration of HUVECs in the presence of test compounds. […] (B) Number of cells that migrate into the wounded area was counted using the Cell Counter functionality of ImageJ. […]

For series [8], the system named is HUVECs. The series is described as follows: Tubulogenesis assay on growth-factor reduced Matrigel. The class given is cell-based, human. Here is the method:
Growth factor reduced Matrigel was thawed overnight on ice at 4°C. 40 μl Matrigel was added to each well of a 96-well plate and incubated for 30 mins to polymerize. 10,000 cells in 100 μl EGM-2 complete medium with either inhibitors or vehicle control (0.2% DMSO) were added to each well. Plates were incubated for 24 hours at 37°C, 5% CO2 and then photographed at 5X magnification. Tube length was measured using the NeuronJ plugin [21] for the NIH ImageJ software.
Primary endothelial cells (ECs) on basement membrane rapidly attach, align themselves and form capillary-like tubules with lumens and tight cell-cell contacts. […] To better understand the stage in matrigel tube-formation affected by 6OH-BBR we followed cells plated on growth-factor reduced matrigel and treated with either vehicle or 6OH-BBR (Figure 5C). Differences become apparent within the first two hours and are clearly visible at the 6-hour time-point. The ECs are much less organized in the presence of 6OH-BBR.
(A) Representative phase-contrast images of HUVECs plated on growth-factor reduced Matrigel in the presence of the indicated doses of test compounds, photographed 16 hours after plating. (B) Quantitation of the number of tube-like structures formed by HUVECs in the presence of test compounds. The number of tubes was measured using NeuronJ. […]

Details of series [9]: method as in PMID 22398967. Particulars: cited from earlier work.

`CC(O)c1oc2ccccc2c1C(=O)c1cc(Br)c(O)c(Br)c1` (centres unmarked) [1’OH-BBR, 1’-hydroxybenzbromarone]: the IC50 at recombinant human EYA3 [1] came out at 52.5 µM.

`CCc1oc2ccccc2c1C(=O)c1cc(Br)c(O)c(Br)c1` [BBR, Benzbromarone]: the “effect on cell viability / proliferation” value in the series on HUVECs [2] (7.5 μM test compound) is “reduced cell viability; also recorded: significant inhibition of cell proliferation”. The half-life in series [3] is 3 h. The maximal plasma concentration was 3.9 μg/ml and ~ 9.2 μM in series [3] (rapid eliminators); 9.17 μg/ml and ~ 21.8 μM in [3] (slow eliminator). Moreover, the “effect on proliferation of HUVECs in the first 24 hours” value with HUVECs [4] is “does not influence proliferation”.

As for `CCc1oc2ccccc2c1C(=O)c1ccc(O)cc1` [BZ, Benzarone, reference compound], the IC50 on recombinant human EYA3 [5] is 17.5 µM. In addition, the “effect on cell viability / proliferation” value with HUVECs [2] (7.5 μM test compound) is recorded as “reduced cell viability; also recorded: significant inhibition of cell proliferation”. Besides, in the series with HUVECs [4], the “effect on proliferation of HUVECs in the first 24 hours” value is listed as “does not influence proliferation”.

With `Cc1oc2ccccc2c1C(=O)c1cc(I)c(O)c(I)c1` [BZI], at recombinant human EYA3 [1], the 50% inhibitory concentration (IC50) was determined as 8.9 µM.

On to `CCc1oc2ccc(O)cc2c1C(=O)c1cc(Br)c(O)c(Br)c1` [Compound 5OH-BBR, 5-hydroxy benzbromaorne], for which, at recombinant human EYA3 [1], the IC50 was determined as 49.4 µM.

Take `CCc1oc2ccc(O)cc2c1C(=O)c1ccc(O)cc1` [Compound 5OH-BZ]: at recombinant human EYA3 [1], the half-inhibitory concentration (IC50) was > 150 µM.

In the case of `CCc1oc2cc(O)ccc2c1C(=O)c1cc(Br)c(O)c(Br)c1` [Compound 6OH-BBR, 6-hydroxybenzbromarone], in series [6], the “attenuation of aortic ring sprouting (in words)” value is reported as “most potent inhibitor”. Also, the “IC50 relative to BBR” value at recombinant human EYA3 [1] (EYA3 inhibition in vitro) is “over twice”. Moreover, the IC50 at recombinant human EYA3 [1] turned out to be 21.5 µM. The “reduction of cell migration” value in the series on HUVECs [7] (7.5 μM test compound, 22 hours after wounding) was ~80%. Also, the “inhibition of tube formation (in words)” value in the series on HUVECs [8] is “much stronger inhibitory effect than BZ”. For the same molecule, the “reduction in cell proliferation” value in the series with HUVECs [2] (7.5 μM test compound, 72 hours post-seeding) was “over 50%”. For the same molecule, the “effect on cell proliferation at the 24-hour time-point” value in the series on HUVECs [2] (24 hours) was “attenuated cell proliferation”. Further, in series [3], the half-life is 30 h.

Take `Cc1oc2ccccc2c1C(=O)c1ccc(O)c(I)c1` [DIBZI]: the IC50 on recombinant human EYA3 [1] turned out to be 20.5 µM. Besides, the “effect on cell viability / proliferation” value in the series on HUVECs [2] (7.5 μM test compound) was “small but significant positive effect on cell proliferation”.

As for `Cc1oc2ccccc2c1C(=O)c1ccc(O)cc1` [DMBZ], at recombinant human EYA3 [1], the IC50 came out at 135 µM.

In the case of `CCCCc1oc2ccccc2c1C(=O)c1cc(I)c(O)c(I)c1` [ODAA], the IC50 on recombinant human EYA3 [1] turned out to be 3.1 µM. The “inhibition of cell migration (in words)” value with HUVECs [7] is recorded as “relatively weak inhibitor”. In addition, in series [9], the “fraction bound to plasma protein” value is given as ~ 99.9%. Moreover, the “inhibition of tube formation (in words)” value with HUVECs [8] is “relatively weak inhibitor”. In addition, in the series with HUVECs [2] (7.5 μM test compound), the “effect on cell viability / proliferation” value was “small but significant positive effect on cell proliferation”.

`CC(O)CCc1oc2ccccc2c1C(=O)c1cc(I)c(O)c(I)c1` (centres unmarked) [OH-ODAA]: the IC50 on recombinant human EYA3 [1] is 16.4 µM.
